Assay results published in PMC4193777 (PLoS ONE, 2014).
Where a SMILES comes first, the peptide text is derived from it. The star is where a group is joined. Palmitoyl = CCCCCCCCCCCCCCCC(=O)*

Key:
[1] = system: P2Y2R; test: Direct NADPH-oxidase activation in naive neutrophils by P2Y2R agonists; format: cell-based, human
Description: (§1) Human peripheral blood neutrophils were isolated from buffy coats from healthy blood donors using dextran sedimentation and Ficoll-Paque gradient centrifugation as described. The remaining erythrocytes were disrupted by hypotonic lysis, the neutrophils were washed twice, resuspended in KRG, and stored on melting ice until use. This isolation procedure permits cells to be purified with minimal granule mobilization.
The NADPH-oxidase activity was determined using isoluminol-enhanced chemiluminescence (CL), [27]. The CL activity was measured in a six-channel Biolumat LB 9505 (Berthold Co., Wildbad, Germany), using disposable 4-ml polypropylene tubes with a 900 µl reaction mixture containing 10^5 cells, isoluminol (2×10^−5 M) and HRP (2 U). The tubes were equilibrated in the Biolumat for 5 min at 37°C, after which the stimulus (100 µl) was added and the light emission was recorded continuously. Receptor desensitized cells were defined as naïve (non-desensitized) cells that had first been stimulated with a receptor specific agonist and returned to baseline after the resulting release of superoxide before a second stimulation. When reactivation experiments were performed with antagonists, the antagonists were added to the CL reaction mixture 1 min before the second stimulation. […]

[2] = system: desensitized FPR2; test: ATP/ATPγS-induced cross-talk reactivation of desensitized FPR2 (superoxide); format: cell-based, human; conditions: desensitized by WKYMVM (40 nM) or F2Pal10 (500 nM); ATPγS 50 µM
Description: as §1
The NADPH-oxidase activity was determined using isoluminol-enhanced chemiluminescence (CL), [27]. The CL activity was measured in a six-channel Biolumat LB 9505 (Berthold Co., Wildbad, Germany), using disposable 4-ml polypropylene tubes with a 900 µl reaction mixture containing 10^5 cells, isoluminol (2×10^−5 M) and HRP (2 U). The tubes were equilibrated in the Biolumat for 5 min at 37°C, after which the stimulus (100 µl) was added and the light emission was recorded continuously. […]
Figure 3 PAF- or ATP-stimulation induces reactivation of desensitized FPR2. […] The FPR2 specific inhibitor PBP10 (1 µM) was added 1 min prior to PAF stimulation (dashed line) and the release of superoxide anions was recorded continuously. […] The release of superoxide anions was recorded continuously. […]

[3] = biological target: T1, FPR2 (Homo sapiens, UniProt P25090); test: Neutrophil NADPH-oxidase activity (superoxide release), direct activation of naive cells; format: cell-based; conditions: read-out: maximum response relative to WKYMVM, superoxide peak, naive human neutrophils; % of response induced by WKYMVM
T1 construct: Human peripheral blood neutrophils were isolated from buffy coats from healthy blood donors; endogenous in cells; host or cells: primary human peripheral blood neutrophils from buffy coats of healthy donors
T1 sequence (P25090 1-351): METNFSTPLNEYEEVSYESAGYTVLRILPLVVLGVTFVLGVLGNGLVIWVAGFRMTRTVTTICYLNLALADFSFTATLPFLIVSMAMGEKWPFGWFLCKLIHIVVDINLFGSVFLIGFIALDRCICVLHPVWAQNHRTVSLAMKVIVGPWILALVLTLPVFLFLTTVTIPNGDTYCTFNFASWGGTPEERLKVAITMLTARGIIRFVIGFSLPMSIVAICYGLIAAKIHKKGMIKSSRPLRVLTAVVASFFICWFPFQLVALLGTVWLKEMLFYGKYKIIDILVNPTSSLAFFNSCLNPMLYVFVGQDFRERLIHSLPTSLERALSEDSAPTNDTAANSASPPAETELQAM
Description: as §1
(§2) The NADPH-oxidase activity was determined using isoluminol-enhanced chemiluminescence (CL), [27]. The CL activity was measured in a six-channel Biolumat LB 9505 (Berthold Co., Wildbad, Germany), using disposable 4-ml polypropylene tubes with a 900 µl reaction mixture containing 10^5 cells, isoluminol (2×10^−5 M) and HRP (2 U). The tubes were equilibrated in the Biolumat for 5 min at 37°C, after which the stimulus (100 µl) was added and the light emission was recorded continuously. Receptor desensitized cells were defined as naïve (non-desensitized) cells that had first been stimulated with a receptor specific agonist and returned to baseline after the resulting release of superoxide before a second stimulation. When reactivation experiments were performed with antagonists, the antagonists were added to the CL reaction mixture 1 min before the second stimulation. For studies with signaling inhibitors, cells were incubated with inhibitors at 37°C for 15 min before agonist addition. Control cells received no treatment but were incubated under the same conditions.
Data analysis was performed using GraphPad Prism 6.0 (Graphpad Software, San Diego, CA, USA).
Representative experiments out of more than five are shown and an arrow indicates the time point for agonist addition. Abscissa: Time of study (min); ordinate: Superoxide production (Mcpm).

[4] = system: neutrophils; test: Inhibition of FPR2 agonist-induced superoxide by pertussis toxin or kinase inhibitors; format: cell-based, human; conditions: for inhibition of F2Pal10- and WKYMVM-induced superoxide by kinase inhibitor: inhibitors 20 nM to 1 µM (1 µM shown), 15 min at 37°C, WKYMVM 50 nM, F2Pal10 500 nM, n = 3
Description: as §1, §2
A. Primary human neutrophils were treated with pertussis toxin (PTX, 500 ng/ml final concentration) and samples were withdrawn at indicated time points. […] As a control, the PMA response (5×10^−8 M final concentration) from control cells (120 min incubation without PTX, solid line in the inset) or treated with PTX for 120 min (dashed line in the inset) is shown. Superoxide production (peak values) from pertussis toxin treated neutrophils was compared to that from non-treated control cells. A representative experiment out of more than five is shown. B and C. Fluo-3-AM/FuraRED labeled neutrophils were incubated without any additive (solid lines) or with EGTA (2 mM; dotted lines). […] Traces of representative calcium responses are shown and at least three experiments have been performed. Abscissa, time of study (sec); ordinate, fluorescence (arbitrary unit). D. Primary human neutrophils were incubated with different pharmacological kinase inhibitors (1 µM final concentration) for 15 min at 37°C. Control cells were incubated at the same condition but received no inhibitors. […] Data are presented as % inhibition compared to the control response (peak values of superoxide production were used, mean±SEM, n = 3).
The effects of these inhibitors were determined using different concentrations ranging from 20 nM to 1 µM.

[5] = system: desensitized FPR2; test: PAF-induced cross-talk reactivation of desensitized FPR2 (superoxide); format: cell-based, human; conditions: PAF 100 nM; inhibitor before PAF; calyculin A 60 nM 10 min at 37°C; PBP10 1 µM; WEB2086 data not shown
Description: as §1, §2
Figure 3 PAF- or ATP-stimulation induces reactivation of desensitized FPR2. […] A representative experiment is shown and the time point for addition of FPR2 agonists is indicated by the first arrow, the time point for PAF stimulation (100 nM final concentration) with the second arrow. The control PAF response induced in naïve (non-desensitized) neutrophils is shown for comparison (dotted line). Abscissa: Time of study (min); ordinate: Superoxide production (Mcpm). B. Naïve neutrophils were first desensitized with F2Pal10 (F2Pal10des., 500 nM final concentration) and subsequently stimulated with PAF (100 nM final concentration; time point for PAF addition is indicated by an arrow). The FPR2 specific inhibitor PBP10 (1 µM) was added 1 min prior to PAF stimulation (dashed line) and the release of superoxide anions was recorded continuously. The PAF responses induced in naïve cells (solid line), as well as in F2Pal10-desensitized cells receiving no PBP10 (dotted line), are shown for comparison. Abscissa: Time of study (min); ordinate: Superoxide production (Mcpm). C. Effect of calyculin A on receptor cross-talk induced FPR2 reactivation. Cells desensitized with F2Pal10 (F2Pal10des.) were incubated with the phosphatase inhibitor calyculin A (60 nM; solid line) or buffer as control (dashed line) for 10 min at 37°C prior to PAF stimulation (100 nM). The release of superoxide anions was recorded continuously. Abscissa: Time of study (min); ordinate: Superoxide production (Mcpm). […] Abscissa: Time of study (min); ordinate: Superoxide production (Mcpm). […] The results are given as peak values of superoxide production following addition of ATPγS (mean+SEM; n = 3).
Figure 4 More pronounced reactivation was induced by PAF in neutrophils desensitized by the pepducin F2Pal10. […] The results are given as peak values of superoxide production from three separate experiments for the first stimulation with FPR2 agonists (mean+SEM, n = 3). […]

`Nc1ncnc2c1ncn2[C@@H]1O[C@H](COP(=O)(O)OP(=O)(O)OP(=O)(O)O)[C@@H](O)[C@H]1O` [ATP] was tested, and the “direct activation of NADPH-oxidase in naive neutrophils” value [1] was “can not directly activate the NADPH-oxidase in naïve neutrophils” and the “superoxide release in FPR2-desensitized cells by P2Y2R agonist” value [2] was “induced a release of superoxide anions in FPR2 desensitized cells”.
In the case of `Nc1ncnc2c1ncn2[C@@H]1O[C@H](CO[P@](=O)(O)O[P@](=O)(O)O[P@@](=O)(O)S)[C@@H](O)[C@H]1O` [ATPγS], the “direct activation of NADPH-oxidase in naive neutrophils” value [1] is reported as “can not directly activate the NADPH-oxidase in naïve neutrophils” and the “superoxide release in FPR2-desensitized cells by P2Y2R agonist” value [2] is reported as “induced a release of superoxide anions in FPR2 desensitized cells”.
For `CCCCCCCCCCCCCCCC(=O)N[C@@H](CCCCN)C(=O)N[C@H](C(=O)N[C@@H](Cc1c[nH]cn1)C(=O)N[C@@H](CCCCN)C(=O)N[C@@H](CCCCN)C(=O)NCC(=O)N[C@@H](CCSC)C(=O)N[C@H](C(=O)N[C@@H](CCCCN)C(=O)N[C@@H](CO)C(=O)O)[C@@H](C)CC)[C@@H](C)CC` [F2Pal10] (Palmitoyl-KIHKKGMIKS-OH), the Emax [3] was 70%.
In the case of `O=c1c(-c2ccc(O)cc2)coc2cc(O)cc(O)c12` [Genistein], the “inhibition of F2Pal10- and WKYMVM-induced superoxide by kinase inhibitor” value (shortened to “inhibition … by kinase inhibitor”) [4] is reported as “Very similar degrees of inhibition”.
`CCCCCCCCCCCCCC(=O)O[C@@H]1[C@@H](C)[C@@]2(O)[C@@H](C=C(CO)C[C@]3(O)C(=O)C(C)=C[C@@H]23)[C@@H]2C(C)(C)[C@]12OC(C)=O` [PMA] was tested, and the “PMA responsiveness of pertussis toxin treated cells” value ([4]; PMA 5×10^−8 M, PTX 120 min) was “retained their responsiveness to PMA”.
With `CC(C)(C)n1nc(-c2ccc(Cl)cc2)c2c(N)ncnc21` [PP2] the “inhibition … by kinase inhibitor” value [4] was “Very similar degrees of inhibition”.
With `C[S+]([O-])c1ccc(-c2nc(-c3ccncc3)c(-c3ccc(F)cc3)[nH]2)cc1` (stereo not shown) [SB203580] the “inhibition … by kinase inhibitor” value [4] was “Very similar degrees of inhibition”.
`Cc1nnc2n1-c1sc(CCC(=O)N3CCOCC3)cc1C(c1ccccc1Cl)=NC2` [WEB2086] was tested, and the “inhibition of PAF response in FPR2-desensitized neutrophils” value [5] was “inhibited”.
